Measured values taken from patent US11780893B2, “Kv1.3 blockers” (Zealand Pharma A/S, priority 2019, dated 2023).
Like-named read-outs stand apart in the source and are kept apart here. Bridge positions count the residues as written; N and C are the ends. Square brackets hold non-standard residues; d marks the D form. Peptide text beside a SMILES is read from it. Phe(4-F) = N[C@@H](Cc1ccc(F)cc1)C(=O)O; Nle = CCCC[C@H](N)C(=O)O; Abu = CC[C@H](N)C(=O)O

Tests used:
[1] = molecular target: Rat whole blood (Rattus norvegicus, UniProt P15384)
[2] = molecular target: T1, human Kv1.3 voltage-gated K+ channel (Homo sapiens, UniProt P22001); experiment: cell-based; conditions: inhibition of thallium flux, CHO-DUKX cells with human Kv1.3; read-out: IC50
T1 construct: host or cells: CHO-DUKX

[3] = inhibition of IL-17A release, thapsigargin, 24 Hr, at least 2 replicates

T1 sequence (P22001 whole entry): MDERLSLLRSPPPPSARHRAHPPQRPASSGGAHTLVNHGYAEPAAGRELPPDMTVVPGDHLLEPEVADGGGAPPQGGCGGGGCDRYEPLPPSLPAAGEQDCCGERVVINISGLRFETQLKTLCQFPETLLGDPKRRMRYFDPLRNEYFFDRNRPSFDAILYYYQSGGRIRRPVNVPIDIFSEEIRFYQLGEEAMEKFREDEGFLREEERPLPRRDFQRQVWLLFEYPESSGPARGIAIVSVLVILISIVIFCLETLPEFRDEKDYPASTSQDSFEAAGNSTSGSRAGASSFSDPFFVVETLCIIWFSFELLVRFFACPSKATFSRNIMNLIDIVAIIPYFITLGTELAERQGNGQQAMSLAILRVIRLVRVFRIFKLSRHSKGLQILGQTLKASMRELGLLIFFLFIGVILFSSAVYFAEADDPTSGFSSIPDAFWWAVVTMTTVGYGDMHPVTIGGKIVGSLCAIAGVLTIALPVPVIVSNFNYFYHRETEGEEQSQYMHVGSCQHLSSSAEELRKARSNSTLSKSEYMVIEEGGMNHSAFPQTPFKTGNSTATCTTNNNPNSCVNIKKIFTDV
Sequence of Rat whole blood (P15384 whole entry): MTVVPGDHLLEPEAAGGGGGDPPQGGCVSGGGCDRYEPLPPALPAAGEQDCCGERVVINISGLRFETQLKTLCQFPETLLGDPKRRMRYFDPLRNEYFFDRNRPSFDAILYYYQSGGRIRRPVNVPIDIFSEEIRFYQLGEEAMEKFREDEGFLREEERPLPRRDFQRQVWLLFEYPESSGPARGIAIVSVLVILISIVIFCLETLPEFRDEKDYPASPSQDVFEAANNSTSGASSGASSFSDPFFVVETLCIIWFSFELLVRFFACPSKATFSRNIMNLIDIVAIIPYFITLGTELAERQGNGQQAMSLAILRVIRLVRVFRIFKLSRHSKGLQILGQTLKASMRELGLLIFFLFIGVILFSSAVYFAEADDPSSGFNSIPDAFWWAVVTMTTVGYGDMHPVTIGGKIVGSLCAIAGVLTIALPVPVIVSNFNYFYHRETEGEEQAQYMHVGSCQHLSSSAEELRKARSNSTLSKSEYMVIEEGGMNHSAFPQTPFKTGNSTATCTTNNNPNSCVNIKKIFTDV

Structure (SMILES)	IC50 [1]	IC50 [1, 3]	IC50 [2]
CCCC[C@H](NC(=O)[C@H](CC(=O)O)NC(=O)[C@H](CCCC)NC(=O)[C@@H](N)CO)C(=O)N[C@@H](CCCNC(=N)N)C(=O)N[C@H]1CSSC[C@@H]2NC(=O)[C@H](CCCCN)NC(=O)CNC(=O)[C@H](Cc3ccccc3)NC(=O)[C@H]([C@@H](C)CC)NC(=O)[C@H](CO)NC(=O)CNC(=O)[C@H]([C@@H](C)CC)NC(=O)[C@H](C)NC(=O)[C@H](CCCCN)NC(=O)[C@H](CC(C)C)NC(=O)[C@@H]3CSSC[C@@H](C(=O)N[C@@H](Cc4ccc(F)cc4)C(=O)N4CCC[C@H]4C(=O)N[C@@H](CCCNC(=N)N)C(N)=O)NC(=O)[C@H](CCCCN)NC(=O)[C@H](CSSC[C@H](NC(=O)[C@H](CCC(=O)O)NC(=O)[C@H](C(C)C)NC(=O)[C@H](CO)NC(=O)[C@H](C)NC(=O)[C@H](CO)NC1=O)C(=O)N[C@@H](CCCCN)C(=O)N[C@@H](CCC(N)=O)C(=O)N[C@@H](CCCCN)C(=O)N3)NC(=O)[C@H](CCCCN)NC(=O)[C@H](CCCCN)NC(=O)[C@H](CC(N)=O)NC(=O)[C@H](CCSC)NC2=O [Compound 91] (H-S[Nle]D[Nle]RCSASVECKQKCLKAIGSIFGKCMNKKCKC[Phe(4-F)]PR-NH2; disulfide 6-27, 12-32, 16-34)	≤ 1 nM	0.34 nM	0.1 nM
CCCC[C@H](NC(=O)[C@H](CC(=O)O)NC(=O)[C@H](CCCC)NC(=O)[C@@H](N)CO)C(=O)N[C@@H](CCCNC(=N)N)C(=O)N[C@H]1CSSC[C@@H]2NC(=O)[C@H](CCCCN)NC(=O)CNC(=O)[C@H](Cc3ccccc3)NC(=O)[C@H]([C@@H](C)CC)NC(=O)[C@H](CO)NC(=O)CNC(=O)[C@H]([C@@H](C)CC)NC(=O)[C@H](C)NC(=O)[C@H](CCCCN)NC(=O)[C@H](CC(C)C)NC(=O)[C@@H]3CSSC[C@@H](C(=O)N[C@@H](Cc4ccc(O)cc4)C(=O)N4CCC[C@H]4C(=O)N[C@@H](CCCNC(=N)N)C(N)=O)NC(=O)[C@H](CCCCN)NC(=O)[C@H](CSSC[C@H](NC(=O)[C@H](CCC(=O)O)NC(=O)[C@H](C(C)C)NC(=O)[C@H](CC)NC(=O)[C@H](C)NC(=O)[C@H](CO)NC1=O)C(=O)N[C@@H](CCCCN)C(=O)N[C@@H](CCC(N)=O)C(=O)N[C@@H](CCCCN)C(=O)N3)NC(=O)[C@H](CCCCN)NC(=O)[C@H](CCCCN)NC(=O)[C@H](CC(N)=O)NC(=O)[C@H](CCSC)NC2=O [Compound 68] (H-S[Nle]D[Nle]RCSA[Abu]VECKQKCLKAIGSIFGKCMNKKCKCYPR-NH2; disulfide 6-27, 12-32, 16-34)	≤ 1 nM	0.93 nM	0.2 nM
CCCC[C@H](NC(=O)[C@H](CC(=O)O)NC(=O)[C@H](CCCC)NC(=O)[C@@H](N)CO)C(=O)N[C@@H](CCCNC(=N)N)C(=O)N[C@H]1CSSC[C@@H]2NC(=O)[C@H](CCCCN)NC(=O)CNC(=O)[C@H](Cc3ccccc3)NC(=O)[C@H]([C@@H](C)CC)NC(=O)[C@H](CO)NC(=O)CNC(=O)[C@H]([C@@H](C)CC)NC(=O)[C@H](C)NC(=O)[C@H](C(C)C)NC(=O)[C@H](CC(C)C)NC(=O)[C@@H]3CSSC[C@@H](C(=O)N[C@@H](Cc4ccc(O)cc4)C(=O)N4CCC[C@H]4C(=O)N[C@@H](CCCNC(=N)N)C(N)=O)NC(=O)[C@H](CCCCN)NC(=O)[C@H](CSSC[C@H](NC(=O)[C@H](CCC(=O)O)NC(=O)[C@H](C(C)C)NC(=O)[C@H](CO)NC(=O)[C@H](C)NC(=O)[C@H](CO)NC1=O)C(=O)N[C@@H](CCCCN)C(=O)N[C@@H](CCC(N)=O)C(=O)N[C@@H](CCCCN)C(=O)N3)NC(=O)[C@H](CCCCN)NC(=O)[C@H](CCCCN)NC(=O)[C@H](CC(N)=O)NC(=O)[C@H](CCSC)NC2=O [Compound 78] (H-S[Nle]D[Nle]RCSASVECKQKCLVAIGSIFGKCMNKKCKCYPR-NH2; disulfide 6-27, 12-32, 16-34)	≤ 1 nM	0.39 nM	0.12 nM
CCCC[C@@H]1NC(=O)[C@@H]2CSSC[C@H](NC(=O)[C@H](CCCNC(=N)N)NC(=O)[C@H](CCCC)NC(=O)[C@H](CC(=O)O)NC(=O)[C@H](CCCC)NC(=O)[C@@H](N)CC(N)=O)C(=O)N[C@@H](CO)C(=O)N[C@@H](C)C(=O)N[C@@H](CO)C(=O)N[C@@H](C(C)C)C(=O)N[C@@H](CCC(=O)O)C(=O)N[C@H]3CSSC[C@H](NC(=O)[C@H](CCCCN)NC(=O)[C@H](CCCCN)NC(=O)[C@H](CC(N)=O)NC1=O)C(=O)N[C@@H](CCCCN)C(=O)N[C@H](C(=O)N[C@@H](Cc1ccc(O)cc1)C(=O)N1CCC[C@H]1C(=O)N[C@@H](CCCNC(=N)N)C(N)=O)CSSC[C@H](NC(=O)[C@H](CCCCN)NC(=O)[C@H](CCC(N)=O)NC(=O)[C@H](CCC(=O)O)NC3=O)C(=O)N[C@@H](CC(C)C)C(=O)N[C@@H](CCCCN)C(=O)N[C@@H](C)C(=O)N[C@@H]([C@@H](C)CC)C(=O)NCC(=O)N[C@@H](CO)C(=O)N[C@@H]([C@@H](C)CC)C(=O)N[C@@H](Cc1ccccc1)C(=O)NCC(=O)N[C@@H](CCCCN)C(=O)N2 [Compound 43] (H-N[Nle]D[Nle]RCSASVECEQKCLKAIGSIFGKC[Nle]NKKCKCYPR-NH2; disulfide 6-27, 12-32, 16-34)	≤ 1 nM	0.99 nM	0.5 nM
CCCC[C@@H]1NC(=O)[C@@H]2CSSC[C@H](NC(=O)[C@H](CCCNC(=N)N)NC(=O)[C@H](CCCC)NC(=O)[C@H](CC(=O)O)NC(=O)[C@H](CCCC)NC(=O)[C@@H](N)CO)C(=O)N[C@@H](CO)C(=O)N[C@@H](C)C(=O)N[C@@H](CO)C(=O)N[C@@H](C(C)C)C(=O)N[C@@H](CCC(=O)O)C(=O)N[C@H]3CSSC[C@H](NC(=O)[C@H](CCCCN)NC(=O)[C@H](CCCCN)NC(=O)[C@H](CC(N)=O)NC1=O)C(=O)N[C@@H](CCCCN)C(=O)N[C@H]1CSSC[C@H](NC(=O)[C@H](CCCCN)NC(=O)[C@H](CCC(N)=O)NC(=O)[C@H](CCCCN)NC3=O)C(=O)N[C@@H](CC(C)C)C(=O)N[C@@H](C)C(=O)N[C@@H](C)C(=O)N[C@@H]([C@@H](C)CC)C(=O)NCC(=O)N[C@@H](CSSC[C@@H](C(N)=O)NC(=O)[C@@H]3CCCN3C(=O)[C@H](Cc3ccc(O)cc3)NC1=O)C(=O)N[C@@H]([C@@H](C)CC)C(=O)N[C@@H](Cc1ccccc1)C(=O)NCC(=O)N[C@@H](CCCCN)C(=O)N2 [Compound 87] (H-S[Nle]D[Nle]RCSASVECKQKCLAAIGCIFGKC[Nle]NKKCKCYPC-NH2; disulfide 6-27, 12-32, 16-34, 22-37)	≤ 1 nM	0.73 nM	0.1 nM
CCCC[C@H](NC(=O)[C@H](CC(=O)O)NC(=O)[C@H](CCCC)NC(=O)[C@@H](N)CO)C(=O)N[C@@H](CCCNC(=N)N)C(=O)N[C@H]1CSSC[C@@H]2NC(=O)[C@H](CCCCN)NC(=O)CNC(=O)[C@H](Cc3ccccc3)NC(=O)[C@H]([C@@H](C)CC)NC(=O)[C@H](CO)NC(=O)CNC(=O)[C@H]([C@@H](C)CC)NC(=O)[C@H](C)NC(=O)[C@H](CCCCN)NC(=O)[C@H](CC(C)C)NC(=O)[C@@H]3CSSC[C@@H](C(=O)N[C@@H](Cc4ccc(O)cc4)C(=O)N4CCC[C@H]4C(=O)N[C@@H](CCCNC(=N)N)C(N)=O)NC(=O)[C@H](CCCNC(=N)N)NC(=O)[C@H](CSSC[C@H](NC(=O)[C@H](CCC(=O)O)NC(=O)[C@H](C(C)C)NC(=O)[C@H](CO)NC(=O)[C@H](C)NC(=O)[C@H](CO)NC1=O)C(=O)N[C@@H](CCCCN)C(=O)N[C@@H](CCC(N)=O)C(=O)N[C@@H](CCCCN)C(=O)N3)NC(=O)[C@H](CCCCN)NC(=O)[C@H](CCCCN)NC(=O)[C@H](CC(N)=O)NC(=O)[C@H](CCSC)NC2=O [Compound 75]	≤ 1 nM	–	–
CC[C@H](C)[C@@H]1NC(=O)[C@H](CO)NC(=O)CNC(=O)[C@H](CCCNC(=N)N)NC(=O)[C@H](C)NC(=O)[C@H](CCCCN)NC(=O)[C@H](CC(C)C)NC(=O)[C@@H]2CSSC[C@@H](C(=O)N[C@@H](Cc3ccc(O)cc3)C(=O)N3CCC[C@H]3C(=O)N[C@@H](CCCNC(=N)N)C(N)=O)NC(=O)[C@H](CCCCN)NC(=O)[C@@H]3CSSC[C@H](NC(=O)[C@H](CCC(=O)O)NC(=O)[C@H](C(C)C)NC(=O)[C@H](CO)NC(=O)[C@H](C)NC(=O)[C@H](CO)NC(=O)[C@@H](NC(=O)[C@H](CCCNC(=N)N)NC(=O)[C@H](CCSC)NC(=O)[C@H](CC(=O)O)NC(=O)[C@H](CCSC)NC(=O)[C@@H](N)CC(N)=O)CSSC[C@H](NC(=O)[C@H](CCCCN)NC(=O)CNC(=O)[C@H](Cc4ccccc4)NC1=O)C(=O)N[C@@H](CCSC)C(=O)N[C@@H](CC(N)=O)C(=O)N[C@@H](CCCCN)C(=O)N[C@@H](CCCCN)C(=O)N3)C(=O)N[C@@H](CCCCN)C(=O)N[C@@H](CCC(N)=O)C(=O)N[C@@H](CCCCN)C(=O)N2 [Compound 60] (H-NMDMRCSASVECKQKCLKARGSIFGKCMNKKCKCYPR-NH2; disulfide 6-27, 12-32, 16-34)	–	–	0.035 nM
CCCC[C@H](NC(=O)[C@@H]1CCCN1)C(=O)N[C@@H](CCC(=O)O)C(=O)N[C@@H](CCCC)C(=O)N[C@@H](CCCNC(=N)N)C(=O)N[C@H]1CSSC[C@@H]2NC(=O)[C@H](CCCCN)NC(=O)CNC(=O)[C@H](Cc3ccccc3)NC(=O)[C@H]([C@@H](C)CC)NC(=O)[C@H](CO)NC(=O)CNC(=O)[C@H]([C@@H](C)CC)NC(=O)[C@H](C)NC(=O)[C@H](C)NC(=O)[C@H](CC(C)C)NC(=O)[C@@H]3CSSC[C@@H](C(=O)N[C@@H](Cc4ccc(O)cc4)C(=O)N4CCC[C@H]4C(=O)N[C@@H](CCCNC(=N)N)C(=O)N[C@@H](CO)C(=O)N[C@H](C(=O)O)[C@@H](C)O)NC(=O)[C@H](CCCCN)NC(=O)[C@H](CSSC[C@H](NC(=O)[C@H](CCC(=O)O)NC(=O)[C@H](C(C)C)NC(=O)[C@H](CO)NC(=O)[C@H](C)NC(=O)[C@H](CO)NC1=O)C(=O)N[C@@H](CCCCN)C(=O)N[C@@H](CCC(N)=O)C(=O)N[C@@H](CCCCN)C(=O)N3)NC(=O)[C@H](CCCCN)NC(=O)[C@H](CCCCN)NC(=O)[C@H](CC(N)=O)NC(=O)[C@H](CCCC)NC2=O [Compound 133] (H-P[Nle]E[Nle]RCSASVECKQKCLAAIGSIFGKC[Nle]NKKCKCYPRST-OH; disulfide 6-27, 12-32, 16-34)	–	–	1.1 nM
